The record followed here is patent US10525055B2, “Opioid receptor antagonist prodrugs” (Nirsum Laboratories, Inc., priority 2017, dated 2020).

Data set [1] in a line: Polymorph screening of solid state drug substances. Particulars: for XRPD results (Dried): stirred 50 °C 72 hours, solids dried; for Visual observation 50° C. / Visual observation RT: target conc. 100 mg/ml; for Comment: stability of initial crystal form (pattern A): polymorph screen over Heptane.
A short description of data set [2]: Solubility determination in oil (cottonseed oil, sesame oil). Particulars: heating temp. 60 °C. As for the experimental part: A known amount of test substance (˜40 mg) was weighed into the vial, 100 μL of oil was added and heated to 60° C. and then system was slurried to reach equilibrium. […] Extra oil was added into the vial once compound precipitated out and then the system was re-equilibrated at 1000 rpm at room temperature (25° C.). Final concentration was determined by HPLC method as described below in Table 6a and 6b.

Data set [3] is described as follows: Plasma stability assay, rat plasma. It counts as in vitro ADME. Particulars: 37° C., 10 μM.
Data set [4] is described as follows: Physical characterization of solid state drug substance (PLM, XRPD, DSC, TGA). To be noted: for Thermal Gravimetric Analysis, weight loss: at 120° C., heated from room temperature at 10° C./minute. It counts as physicochemical. As for the experimental part:
The analysis of the physical characteristics of drug substances that were in a solid state was conducted using polarized light microscopy (PLM), X-ray powder diffractometer (XRPD) assessment, Differential Scanning calorimetry (DSC) and Thermal Gravimetric Analysis (TGA). For PLM, samples were dispersed in immersion oil and were observed using an ocular lens (10×) and objective lens (20×) under crossed polarizers. For XRPD, samples were run on a diffractometer using the following method: Tube—Cu: K-alpha (λ=1.54179 Å); Generator—Voltage 40 kV, Current 40 mA; Scan scope—3 to 40°; sample rotation speed—15 rpm; scanning rate—10 deg/min. For DSC, ˜1 mg of sample was tested using a crimped aluminum pan and covered by a lid with a hole, heated from room temperature to 300° C. at a speed of 10° C./minute. For TGA, 2-5 mg of sample was placed in an open platinum pan and heated from room temperature to 300° C. at a rate of 10° C./minute.

Setting [5] is: MTBE, Isopropanol, EtOAc, Acetone.

In the case of `CCCCCCCCCCCCOC(=O)Oc1ccc2c3c1O[C@H]1C(=O)CC[C@@]4(O)C(C2)N(CC2CC2)CC[C@]314` [Compound 11, (4aS,7aR,12bS)-3-(cyclopropylmethyl)-4a-hydroxy-7-oxo-2,3,4,4a,5,6,7,7a-octahydro-1H-4,12-methanobenzofuro[3,2-e]isoquinolin-9-yl dodecyl carbonate], in data set [1] (Acetone), the “XRPD results (Dried)” value is listed as “Pattern A”, the “Visual observation 50° C.” value was “Clear” and the “Visual observation RT” value is listed as “Slurry”. In addition, in data set [1] (EtOAc), the “XRPD results (Dried)” value is given as “Pattern A”, the “Visual observation 50° C.” value was “Clear” and the “Visual observation RT” value was “Slurry”. Moreover, in data set [1] (Heptane), the “XRPD results (Dried)” value is “Pattern B”, the “Visual observation 50° C.” value is listed as “Clear” and the “Visual observation RT” value was “Clear”. Further, in data set [1] (Isopropanol), the “XRPD results (Dried)” value is given as “Pattern A”, the “Visual observation 50° C.” value is “Clear” and the “Visual observation RT” value is “Slurry”. Moreover, in data set [1] (MTBE), the “XRPD results (Dried)” value was “Pattern A”, the “Visual observation 50° C.” value is “Clear” and the “Visual observation RT” value is listed as “Clear”. For the same compound, the “Comment: stability of initial crystal form (pattern A)” value (shortened to “Comment: stability”) in data set [1] (setting [5]) is recorded as “to be stable form; Pattern A generated”. For the same compound, the “Approximate Solubility (mg/mL) in Excipient: Sesame oil” value (“Approximate Solubility … Sesame oil” below) in data set [2] (obs. temp. 25 °C) is recorded as less than 50 mg/mL. Besides, in data set [3], the “% remaining at time point in minutes, 0 min” value is recorded as 100%; the “% remaining at time point in minutes, 15 min” value (from here on “% remaining … 15 min”) amounted to 0.7%; the “% remaining at time point in minutes, 120 min” value (“% remaining … 120 min” below) is 0.3%; the “% remaining at time point in minutes, 480 min” value (“% remaining … 480 min” below) is reported as 0.2%. Further, the “% remaining at time point in minutes, 1440 min” value (“% remaining … 1440 min” below) in data set [3] is on record as 0%. Besides, the “Thermal Gravimetric Analysis, weight loss” value in data set [4] is recorded as “Weight loss of 0.30% at”.

In the case of `CCCCCCCCCCCCCCCCOC(=O)Oc1ccc2c3c1O[C@H]1C(=O)CC[C@@]4(O)C(C2)N(CC2CC2)CC[C@]314` [Compound 21, (4aS,7aR,12bS)-3-(cyclopropylmethyl)-4a-hydroxy-7-oxo-2,3,4,4a,5,6,7,7a-octahydro-1H-4,12-methanobenzofuro[3,2-e]isoquinolin-9-yl hexadecyl carbonate], in data set [1] (Acetone), the “XRPD results (Dried)” value is reported as “Pattern A”, the “Visual observation 50° C.” value is listed as “Clear” and the “Visual observation RT” value is recorded as “Slurry”. Besides, in data set [1] (EtOAc), the “XRPD results (Dried)” value is “Pattern A”, the “Visual observation 50° C.” value is given as “Clear” and the “Visual observation RT” value is “Slurry”. In data set [1] (Heptane), the “XRPD results (Dried)” value is recorded as “Pattern A”, the “Visual observation 50° C.” value is given as “Clear” and the “Visual observation RT” value was “Slurry”. In data set [1] (Isopropanol), the “XRPD results (Dried)” value is “Pattern A”, the “Visual observation 50° C.” value is given as “Clear” and the “Visual observation RT” value is “Slurry”. In data set [1] (MTBE), the “XRPD results (Dried)” value is given as “Pattern A”, the “Visual observation 50° C.” value is “Clear” and the “Visual observation RT” value is recorded as “Clear”. Also, the “Comment: stability” value in data set [1] (setting [5]) is on record as “stable form. Same crystal form”. Further, the “Approximate Solubility … Sesame oil” value in data set [2] (obs. temp. 40 °C) is 101 to 134.5 mg/mL. Also, in data set [3], the “% remaining at time point in minutes, 0 min” value is 100%; the “% remaining … 15 min” value worked out at 73.5%; the “% remaining … 120 min” value was 68.3%; the “% remaining … 480 min” value was 59.8%. In data set [3], the “% remaining … 1440 min” value was found to be 40.9%. The “X-ray Powder Diffraction” value in data set [4] (solid state drug substance, XRPD/PLM) is on record as “Crystal Form with partial”.

With `C=C1CC[C@@]2(O)C3Cc4ccc(OC(=O)OCCCCCCCCCCCCCC)c5c4[C@@]2(CCN3CC2CC2)[C@H]1O5` [Compound 31, (4aS,7aS,12bS)-3-(cyclopropylmethyl)-4a-hydroxy-7-methylene-2,3,4,4a,5,6,7,7a-octahydro-1H-4,12-methanobenzofuro[3,2-e]isoquinolin-9-yl tetradecyl carbonate], in data set [1] (Acetone), the “XRPD results (Dried)” value was “Pattern A”, the “Visual observation 50° C.” value is listed as “Clear” and the “Visual observation RT” value was “Slurry”. Also, in data set [1] (EtOAc), the “XRPD results (Dried)” value is “Pattern A”, the “Visual observation 50° C.” value was “Clear” and the “Visual observation RT” value is given as “Clear”. Besides, in data set [1] (Heptane), the “XRPD results (Dried)” value is on record as “Pattern A”, the “Visual observation 50° C.” value was “Clear” and the “Visual observation RT” value is recorded as “Slurry”. Besides, in data set [1] (Isopropanol), the “XRPD results (Dried)” value is reported as “Pattern A”, the “Visual observation 50° C.” value is given as “Clear” and the “Visual observation RT” value is listed as “Clear”. Further, in data set [1] (MTBE), the “XRPD results (Dried)” value was “Pattern A”, the “Visual observation 50° C.” value is listed as “Clear” and the “Visual observation RT” value was “Slurry”. Further, in data set [2] (obs. temp. 25 °C), the “Approximate Solubility … Sesame oil” value is recorded as more than 413.5 mg/mL. Further, in data set [3], the “% remaining at time point in minutes, 0 min” value is recorded as 100%; the “% remaining … 15 min” value was 123.2%; the “% remaining … 120 min” value is 73.5%; the “% remaining … 480 min” value was 54.4%. Further, the “% remaining … 1440 min” value in data set [3] is recorded as 46.4%. Also, in data set [4], the “Thermal Gravimetric Analysis, weight loss” value is “Weight loss of 0.7244%”.

For the compound `CCCCCCCCCCCCCCCC(=O)Oc1ccc2c3c1O[C@H]1C(=O)CC[C@@]4(O)C(C2)N(CC2CC2)CC[C@]314` [Compound 55, (4aS,7aR,12bS)-3-(cyclopropylmethyl)-4a-hydroxy-7-oxo-2,3,4,4a,5,6,7,7a-octahydro-1H-4,12-methanobenzofuro[3,2-e]isoquinolin-9-yl palmitate], in data set [1] (Acetone), the “XRPD results (Dried)” value is reported as “Pattern B”, the “Visual observation 50° C.” value is reported as “Clear” and the “Visual observation RT” value is listed as “Slurry”. Also, in data set [1] (EtOAc), the “XRPD results (Dried)” value is “Pattern B”, the “Visual observation 50° C.” value is “Clear” and the “Visual observation RT” value is reported as “Slurry”. In data set [1] (Heptane), the “XRPD results (Dried)” value was “Pattern B”, the “Visual observation 50° C.” value is “Clear” and the “Visual observation RT” value is listed as “Slurry”. Further, in data set [1] (Isopropanol), the “XRPD results (Dried)” value is “Pattern B”, the “Visual observation 50° C.” value is given as “Clear” and the “Visual observation RT” value is listed as “Slurry”. Moreover, in data set [1] (MTBE), the “XRPD results (Dried)” value was “Pattern B”, the “Visual observation 50° C.” value is recorded as “Clear” and the “Visual observation RT” value is reported as “Clear”. Also, the “Comment: stability” value in data set [1] (setting [5]) is “Cannot determine which crystal form”. Moreover, in data set [2] (Ethanol, obs. temp. 40 °C), the “Approximate Solubility (mg/mL) in Excipient: Ethanol” value is reported as more than 401.1 mg/mL. Moreover, in data set [2] (obs. temp. 40 °C), the “Approximate Solubility … Sesame oil” value is more than 394.8 mg/mL. Further, in data set [3], the “% remaining at time point in minutes, 0 min” value is listed as 100%; the “% remaining … 15 min” value was 77.3%; the “% remaining … 120 min” value turned out to be 47.2%; the “% remaining … 480 min” value is recorded as 27.1%. Also, the “% remaining … 1440 min” value in data set [3] is 15.6%. For the same compound, the “Thermal Gravimetric Analysis, weight loss” value in data set [4] is given as “Weight loss of 0.2597%”.
